Results taken from BindingDB's records for patent US20250313563 (The Broad Institute, 2025).
Several values for one entry are separate records, joined by “and”; a condition that tells them apart may be missing. Equal values may be shown once.

Columns and labels:
[1] = molecular target: Glycogen synthase kinase-3 alpha (Homo sapiens, UniProt P49840); test: TR-FRET Assay
Summary of the method: (§1)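 Compound was preincubated 30 min in assay buffer before the kinase reaction, which was quenched with EDTA. Phosphorylation was detected by TR-FRET after adding a solution of 40 nM streptavidin-d2 and 2 nM Tb-labelled anti-pSer641 antibody.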

[2] = molecular target: Glycogen synthase kinase-3 beta (Homo sapiens, UniProt P49841); test: TR-FRET Assay
Summary of the method: as §1

Sequence of Glycogen synthase kinase-3 beta (P49841 whole entry): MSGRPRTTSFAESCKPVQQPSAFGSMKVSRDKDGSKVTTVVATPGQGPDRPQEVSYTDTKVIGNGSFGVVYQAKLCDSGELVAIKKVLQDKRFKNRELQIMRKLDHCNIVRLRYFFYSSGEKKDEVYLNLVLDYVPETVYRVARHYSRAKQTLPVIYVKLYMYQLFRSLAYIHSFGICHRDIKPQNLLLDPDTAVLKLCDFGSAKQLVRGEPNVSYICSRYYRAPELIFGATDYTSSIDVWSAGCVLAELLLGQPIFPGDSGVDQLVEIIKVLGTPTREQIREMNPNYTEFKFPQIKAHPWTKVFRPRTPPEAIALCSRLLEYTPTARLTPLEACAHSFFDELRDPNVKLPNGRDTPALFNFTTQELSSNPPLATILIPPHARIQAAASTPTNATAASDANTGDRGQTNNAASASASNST
Sequence of Glycogen synthase kinase-3 alpha (P49840 whole entry): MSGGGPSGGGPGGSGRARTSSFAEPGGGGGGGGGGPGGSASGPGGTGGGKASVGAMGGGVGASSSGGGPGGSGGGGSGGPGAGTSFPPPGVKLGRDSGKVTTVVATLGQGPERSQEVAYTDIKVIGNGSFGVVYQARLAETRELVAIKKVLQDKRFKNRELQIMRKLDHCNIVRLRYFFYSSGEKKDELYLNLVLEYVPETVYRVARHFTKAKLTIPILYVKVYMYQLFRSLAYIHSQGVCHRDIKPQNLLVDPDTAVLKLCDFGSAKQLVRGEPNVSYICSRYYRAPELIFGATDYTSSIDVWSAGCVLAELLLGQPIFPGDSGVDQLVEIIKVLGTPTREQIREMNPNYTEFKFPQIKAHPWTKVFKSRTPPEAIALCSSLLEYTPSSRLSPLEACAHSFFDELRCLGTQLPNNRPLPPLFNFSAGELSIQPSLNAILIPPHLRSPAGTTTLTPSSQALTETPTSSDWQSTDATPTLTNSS

IC50 [1] | IC50 [2] | SMILES
< 100 nM | 100 to 1000 nM | CCC1(c2cccc(C(C)c3ncccn3)c2)C2=CN=NC2NC2=C1C(=O)CC(C)(C)C2 (centres undefined) [US20250313563, Compound 947434]
< 100 nM | 100 to 1000 nM | CCC1(c2cccc(-n3ccnc3)c2)C2=CN=NC2NC2=C1C(=O)CC(C)(C)C2 (centres undefined) [US20250313563, Compound 854926]
< 100 nM | 100 to 1000 nM | CCC1(c2cccc(-c3ccncn3)c2)C2=CN=NC2NC2=C1C(=O)CC(C)(C)C2 (centres undefined) [US20250313563, Compound 806637]
< 100 nM | < 100 nM | CC[C@]1(c2cccc(-c3ccncc3)c2)C2=C(CC(C)(C)CC2=O)NC2N=NC(C(F)(F)F)=C21 (some centres undefined) [US20250313563, Compound 917293]
1000 to 5000 nM | > 5000 nM | CC[C@@]1(c2cccc(S(C)(=O)=O)c2)C2=C(CC(C)(C)NC2=O)NC2N=NC(C)=C21 (some centres undefined) [US20250313563, Compound 947815]
< 100 nM | 100 to 1000 nM | CC[C@@]1(c2cccc(-c3ccncc3C)c2)C2=C(CC(C)(C)CC2=O)NC2N=NC(C(F)(F)F)=C21 (some centres undefined) [US20250313563, Compound 947325]
100 to 1000 nM | 1000 to 5000 nM | CCC1(c2cccc(N(C)c3nc(C)cc(C)n3)c2)C2=CN=NC2NC2=C1C(=O)CC(C)(C)C2 (centres undefined) [US20250313563, Compound 926304]
< 100 nM and 100 to 1000 nM | < 100 nM and 1000 to 5000 nM | CC[C@@]1(c2cccc(-c3cn(C)nc3C)c2)C2=CN=NC2NC2=C1C(=O)NC(C)(C)C2 (some centres undefined) [US20250313563, Compound 945470]
100 to 1000 nM | 1000 to 5000 nM | CCC1(c2cccc(OC)c2)C2=CN=NC2NC2=C1C(=O)CC(C)(C)C2 (centres undefined) [US20250313563, Compound 801447]
100 to 1000 nM | 1000 to 5000 nM | CCC1(c2cccc(-c3ccnc(C(C)(C)C)c3)c2)C2=CN=NC2NC2=C1C(=O)CC(C)(C)C2 (centres undefined) [US20250313563, Compound 947490]
< 100 nM | 100 to 1000 nM | CCC1(c2cccc(N(C)C(=O)c3ccn(C)n3)c2)C2=CN=NC2NC2=C1C(=O)CC(C)(C)C2 (centres undefined) [US20250313563, Compound 917130]
100 to 1000 nM | 1000 to 5000 nM | CCC1(c2cccc(N(C)c3cccnc3C)c2)C2=CN=NC2NC2=C1C(=O)CC(C)(C)C2 (centres undefined) [US20250313563, Compound 885355]
100 to 1000 nM | 100 to 1000 nM | CC[C@@]1(c2ccc(OC(C)C)cc2)C2=C(CC(C)(C)CC2=O)NC2N=NC(C(F)(F)F)=C21 (some centres undefined) [US20250313563, Compound 947873]
100 to 1000 nM | 100 to 1000 nM | CC[C@@]1(c2cccc(N3CCOCC3)c2)C2=CN=NC2NC2=C1C(=O)CC(C)(C)C2 (some centres undefined) [US20250313563, Compound 810363]
< 100 nM | < 100 nM | CC[C@]1(c2cccc(-c3cc(C)nnc3C)c2)C2=C(CC(C)(C)NC2=O)NC2N=NC(C(F)(F)F)=C21 (some centres undefined) [US20250313563, Compound 949917]
< 100 nM | < 100 nM | CCC1(c2cccc(S(=O)(=O)C(C)C)c2)C2=CN=NC2NC2=C1C(=O)CC(C)(C)C2 (centres undefined) [US20250313563, Compound 912169]
< 100 nM | 100 to 1000 nM | CCC1(c2cccc(N(C)C(=O)C3CCCCC3)c2)C2=CN=NC2NC2=C1C(=O)CC(C)(C)C2 (centres undefined) [US20250313563, Compound 912065]
< 100 nM | < 100 nM | CCC1(c2cccc(-c3cnn4c3CCCC4)c2)C2=C(CC(C)(C)CC2=O)NC2N=NC(C)=C21 (centres undefined) [US20250313563, Compound 884002]
100 to 1000 nM | > 1670 nM | CCC1(c2cccc(N3CCOCC3)c2)C2=CN=NC2NC2=C1C(=O)CC(C)(C)C2 (centres undefined) [US20250313563, Compound 801318]
< 100 nM | < 100 nM | CCC1(c2cccc(-c3ccnc(C)c3C)c2)C2=CN=NC2NC2=C1C(=O)CC(C)(C)C2 (centres undefined) [US20250313563, Compound 913347]
100 to 1000 nM | 1000 to 5000 nM | CC[C@]1(c2cccc(-c3cncn3C(C)C)c2)C2=CN=NC2NC2=C1C(=O)CC(C)(C)C2 (some centres undefined) [US20250313563, Compound 945729]
< 100 nM | < 100 nM | CCC1(c2cccc(-c3c(C)nn(C)c3C)c2)C2=C(CC(C)(C)CC2=O)NC2N=NC(C)=C21 (centres undefined) [US20250313563, Compound 883995]
> 5000 nM | > 5000 nM | CC[C@@]1(c2cc(-c3ccnc(C)c3)ccc2F)C2=CN=NC2NC2=C1C(=O)CC(C)(C)C2 (some centres undefined) [US20250313563, Compound 909213]
< 100 nM and 100 to 1000 nM | < 100 nM and 1000 to 5000 nM | CC[C@@]1(c2cccc(-c3ccnc(C)c3F)c2)C2=CN=NC2NC2=C1C(=O)CC(C)(C)C2 (some centres undefined) [US20250313563, Compound 927347]
< 100 nM | < 100 nM | CCC1(c2cccc(Cl)c2)C2=C(CC(C)(C)CC2=O)NC2N=NC(Br)=C21 (centres undefined) [US20250313563, Compound 789564]
< 100 nM | < 100 nM and 100 to 1000 nM | CCC1(c2cccc(-c3ccnc(C)c3C)c2)C2=C(CC(C)(C)CC2=O)NC2N=NC(C(F)(F)F)=C21 (centres undefined) [US20250313563, Compound 945529]
< 100 nM | 100 to 1000 nM | CC[C@]1(c2cccc(-c3ccnc(C)c3)c2)C2=CN=NC2NC2=C1C(=O)N[C@@]1(CCCOC1)C2 (some centres undefined) [US20250313563, Compound 948144]

The remaining lines, values behind:

SMILES | IC50 [1] | IC50 [2]
CCC1(c2ccccc2)C2=C(N=NC2)NC2=C1C(=O)CC1(CCCC1)C2 (centres undefined) [US20250313563, Compound 785737] | < 100 nM | 100 to 1000 nM
Cc1ccc(S(=O)(=O)N2CCC3(CC2)C2=C(N=NC2)NC2=C3C(=O)CC(C)(C)C2)cc1 [US20250313563, Compound 947459] | < 100 nM | 100 to 1000 nM
CC[C@@]1(c2cccc(-c3cnn(CCc4ccccc4)c3)c2)C2=CN=NC2NC2=C1C(=O)NC(C)(C)C2 (some centres undefined) [US20250313563, Compound 952017] | < 100 nM | 100 to 1000 nM
CC1(C(F)(F)F)CC(=O)C2=C(C1)NC1=C(CN=N1)C21CCOCC1 (centres undefined) [US20250313563, Compound 901458] | 100 to 1000 nM | 100 to 1000 nM
CC1(C)CC(=O)C2=C(C1)NC1=C(CN=N1)[C@]21CCC[C@@H](C#N)C1 [US20250313563, Compound 946080] | 1000 to 5000 nM | 1000 to 5000 nM
CCC1(c2cccc(-c3ccnc(C)c3)c2)C2=CN=NC2NC2=C1C(=O)NC(C)C2 (centres undefined) [US20250313563, Compound 913357] | 100 to 1000 nM | 1000 to 5000 nM
Cc1cccc(S(=O)(=O)N2CC[C@@]3(C2)C2=C(N=NC2)NC2=C3C(=O)CC(C)(C)C2)c1 [US20250313563, Compound 943489] | < 100 nM | < 100 nM
CC1(C)CC(=O)C2=C(C1)NC1=C(CN=N1)C21CCN(S(=O)(=O)c2cccc(C#N)c2)CC1 [US20250313563, Compound 947254] | < 100 nM | < 100 nM and 100 to 1000 nM
CC1(C)CC(=O)C2=C(NC3=C(CN=N3)C23CCN(S(=O)(=O)c2cccc(C(F)(F)F)c2)CC3)[C@@H]1F [US20250313563, Compound 951703] | < 100 nM and 100 to 1000 nM | < 100 nM and 1000 to 5000 nM
CC1(C)CC(=O)C2=C(C1)NC1=C(CN=N1)C21CCN(S(=O)(=O)c2cnc3cccnn23)CC1 [US20250313563, Compound 948120] | < 100 nM and 100 to 1000 nM | < 100 nM and 1000 to 5000 nM
CC1(C)CC2=C(C(=O)N1)C1(CCN(S(C)(=O)=O)CC1)C1=C(N=NC1)N2 [US20250313563, Compound 943959] | < 100 nM | 100 to 1000 nM
CC[C@]1(c2ccccc2)C2=CN=NC2NC2=C1C(=O)[C@@H](C)C[C@H]2C (some centres undefined) [US20250313563, Compound 909219] | > 5000 nM | > 5000 nM
CC[C@@]1(c2cccc(C(F)(F)F)c2)C2=CN=NC2NC2=C1C(=O)N(c1cn(C)nc1C)CC2 (some centres undefined) [US20250313563, Compound 949642] | 100 to 1000 nM | 1000 to 5000 nM
CC1(C)CC(=O)C2=C(C1)NC1=C(CN=N1)C21CCN(S(=O)(=O)c2cnn(C(C)(C)C)c2)CC1 [US20250313563, Compound 945677] | < 100 nM | 100 to 1000 nM
CC1(C)CC(=O)C2=C(C1)NC1=C(CN=N1)C21COC2(CN(C(=O)C3CC3(F)F)C2)C1 (centres undefined) [US20250313563, Compound 947272] | < 100 nM | < 100 nM
CC1(C)CC(=O)C2=C(C1)NC1=C(CN=N1)[C@@]21CC[C@@H](C(F)(F)F)C1 [US20250313563, Compound 952436] | < 100 nM and 1000 to 5000 nM | < 100 nM and 1000 to 5000 nM
CC1(C)CC(=O)C2=C(C1)NC1N=NC=C1[C@]21CCCc2ccccc21 (some centres undefined) [US20250313563, Compound 930566] | < 100 nM | 100 to 1000 nM
CCC1(c2cccc(Oc3ncccn3)c2)C2=C(CC(C)(C)NC2=O)NC2N=NC(C(F)(F)F)=C21 (centres undefined) [US20250313563, Compound 950323] | < 100 nM | < 100 nM
CC[C@]1(c2cccc(-c3ccnc4cc(F)c(F)cc34)c2)C2=CN=NC2NC2=C1C(=O)NC(C)(C)C2 (some centres undefined) [US20250313563, Compound 948664] | 1000 to 5000 nM | > 5000 nM
CC1(C)CC(=O)C2=C(C1)NC1=C(CN=N1)C2(C)CCc1ccccc1 (centres undefined) [US20250313563, Compound 819562] | 1000 to 5000 nM | > 5000 nM
CC1(C)CC(=O)C2=C(NC3=C(CN=N3)C23CCN(S(=O)(=O)c2cccc(C(F)(F)F)c2)CC3)[C@H]1F [US20250313563, Compound 951713] | < 100 nM and 100 to 1000 nM | < 100 nM and 1000 to 5000 nM
Cn1cc(S(=O)(=O)N2CC[C@@]3(C2)C2=C(N=NC2)NC2=C3C(=O)CC(C)(C)C2)cn1 [US20250313563, Compound 951725] | 100 to 1000 nM | 1000 to 5000 nM
O=C1C2=C(NC3N=NC=C3C23CCOCC3)C2CCC1C2 (centres undefined) [US20250313563, Compound 901464] | 100 to 1000 nM | 100 to 1000 nM
Cc1ccc(C(=O)N2CC3(C2)C[C@@]2(CO3)C3=C(N=NC3)NC3=C2C(=O)CC(C)(C)C3)cc1C [US20250313563, Compound 948039] | 100 to 1000 nM | 1000 to 5000 nM
CC1(C)CC(=O)C2=C(C1)NC1=C(CN=N1)C21CCN(S(=O)(=O)c2ccc(F)c(Cl)c2)CC1 [US20250313563, Compound 948117] | < 100 nM | < 100 nM
